This note sets out measurements from PMC11397358, “Cytotoxic Activity of Novel GnRH Analogs Conjugated with Mitoxantrone in Ovarian Cancer Cells” (Molecules, 2024).

For the assay, the system named is SKOV-3 cells. Briefly: Annexin V / propidium iodide apoptosis assay by flow cytometry. The format is cell-based, human. The note with it: for Apoptotic Cells (%) Mean, Day2 / Apoptotic Cells (%) Mean, Day3 / Apoptotic Cells (%) Mean, Day4: 1 μM, Q1 and Q2, mean of three experiments, * p < 0.01 vs untreated; for Apoptotic Cells (%) Mean, Day2 / percentage of apoptotic cells (Q1, Q2 quadrants), day 2: 2 days; for Apoptotic Cells (%) Mean, Day3 / percentage of apoptotic cells (Q1, Q2 quadrants), day 3: 3 days; for Apoptotic Cells (%) Mean, Day4 / percentage of apoptotic cells (Q1, Q2 quadrants), day 4: 4 days; for percentage of apoptotic cells (Q1, Q2 quadrants), day 2 / percentage of apoptotic cells (Q1, Q2 quadrants), day 3 / percentage of apoptotic cells (Q1, Q2 quadrants), day 4: 1 μΜ, 37 °C, representative experiment (Figure 5). From the text: We next evaluate the abilities of Con-3 and Con-7 at concentrations of 1 μΜ to induce cell death by determining the percentages of live, apoptotic and necrotic cells after treatment of SKOV-3 cells with the GnRH conjugates. As shown in Figure 5 and Figures S1–S3 on day 2, the majority of SKOV-3 cells were viable (Q4 quadrant), treated either with Con-3, Con-7 or mitoxantrone, whereas the percentage of apoptotic cells (late or early apoptotic) (Q1, Q2 quadrants) was only 10.1%, 10.87% and 13.1% after treatment with Con-3, Con-7 or mitoxantrone, respectively. […] Cell viability further decreased on day 4 with a concomitant increase in apoptosis. Specifically, the percentage of apoptotic cells was 53.5%, 59.6% and 54.3% after treatment with Con-3, Con-7 or mitoxantrone (Figure 5 and Figures S7–S9). In all phases, the percentage of the necrotic and late apoptotic cells (Q3 quadrant) was very small.
Figure 5 Determination of viability, apoptosis, or necrosis of SKOV-3 cells after their treatment with 1 μM Con-3, Con-7, or mitoxantrone for 2, 3, and 4 days at 37 °C. At the end of the incubation the cells were further incubated in binding buffer supplied by Biotium, (CF488A Apoptosis Detection kit) and analyzed on a flow cytometer (excitation 488 nm), in the FITC channel (filter 530 nm) for detection of the Annexin V-positive cellsand in the propidium iodide, or PI, channel (filter 616 nm) for detection of the PI-positive cells. The figures are from a representative experiment performed three times with similar results. A higher resolution of the images in Figure 5 is provided in the Supplementary Material (Figures S1–S9). TEXT PRINTED IN THE PICTURE: Con-3: Q3: 4,19 (Day 2); Q2: 7,12 (Day 2); Q4: 85,7 (Day 2); Q1: 2,98 (Day 2); Q3: 5,31 (Day3); Q2: 19,5 (Day3); Q4: 58,0 (Day3); Q1: 17,1 (Day3); Q3: 3,54 (Day4); Q2: 17,1 (Day4); Q4: 43,0 (Day4); Q1: 36,4 (Day4) | Con-7: Q3: 6,31 (Day 2); Q2: 7,74 (Day 2); Q4: 82,8 (Day 2); Q1: 3,13 (Day 2); Q3: 8,11 (Day3); Q2: 19,8 (Day3); Q4: 56,8 (Day3); Q1: 15,3 (Day3); Q3: 3,48 (Day4); Q2: 19,7 (Day4); Q4: 36,9 (Day4); Q1: 39,9 (Day4) | Mitoxantrone: Q3: 6,49 (Day 2); Q2: 9,40 (Day 2); Q4: 80,4 (Day 2); Q1: 3,67 (Day 2); Q3: 7,13 (Day3); Q2: 18,9 (Day3); Q4: 61,0 (Day3); Q1: 13,1 (Day3); Q3: 2,72 (Day4); Q2: 17,3 (Day4); Q4: 43,0 (Decimal sign as read) (Day4); Q1: 37,0 (Day4) DOUBTS OF THE COPYIST ABOUT THIS PICTURE: All quadrant values: the print is very small, and the decimal sign may be a comma or a point in every value / Con-3, Day 2, Q4: 85,7 or 86,7 / Con-3, Day 2, Q1: 2,98 or 2,96 / Con-3, Day3, Q3: 5,31 or 6,31 / Con-3, Day3, Q2: 19,5 or 19,6 / Con-3, Day3, Q4: 58,0 or 56,0 / Con-3, Day4, Q3: 3,54 or 3,64 / Con-3, Day4, Q1: 36,4 or 38,4 / Con-7, Day 2, Q3: 6,31 or 8,31 / Con-7, Day 2, Q4: 82,8 or 82,6 / Con-7, Day 2, Q1: 3,13 or 3,15 / Con-7, Day3, Q3: 8,11 or 6,11 / Con-7, Day3, Q2: 19,8 or 19,6 / Con-7, Day3, Q4: 56,8 or 58,8 / Con-7, Day3, Q1: 15,3 or 15,8 / Con-7, Day4, Q3: 3,48 or 3,46 / Con-7, Day4, Q4: 36,9 or 38,9 / Con-7, Day4, Q1: 39,9 or 38,9 / Mitoxantrone, Day 2, Q3: 6,49 or 8,49 / Mitoxantrone, Day 2, Q2: 9,40 or 8,40 / Mitoxantrone, Day 2, Q4: 80,4 or 60,4 / Mitoxantrone, Day 2, Q1: 3,67 or 3,87 / Mitoxantrone, Day3, Q2: 18,9 or 16,9 / Mitoxantrone, Day3, Q4: 61,0 or 81,0 / Mitoxantrone, Day3, Q1: 13,1 or 15,1 […]
SKOV-3 cells were seeded into 12-well plates at a density of 50,000 cells/well and incubated overnight in DMEM/F12 (1:1) containing 3.15 g/L glucose and 10% BCS, at 37 °C and 5% CO2. At the end of the incubation, the culture medium was replaced with a fresh one containing 3.15 g/L glucose and 2% BCS, with or without GnRH analogs or mitoxantrone at a concentration of 1 μΜ, and the cells were further incubated at 37 °C and 5% CO2 for 2, 3 and 4 days. […]

Molecules are shown by their SMILES.

As to `CCNC(=O)[C@@H]1CCCN1C(=O)[C@H](CCCNC(=N)N)NC(=O)[C@H](CC(C)C)NC(=O)[C@@H](CSSCCC(=O)OCCNCCNc1ccc(NCCNCCO)c2c1C(=O)c1c(O)ccc(O)c1C2=O)NC(=O)[C@H](Cc1ccc(O)cc1)NC(=O)[C@H](CO)NC(=O)[C@H](Cc1c[nH]c2ccccc12)NC(=O)[C@H](Cc1c[nH]cn1)NC(=O)[C@@H]1CCC(=O)N1` [Con-3], the “Apoptotic Cells (%) Mean, Day2” value is given as 13.68 * %; the “Apoptotic Cells (%) Mean, Day3” value is listed as 35.00 * %; the “Apoptotic Cells (%) Mean, Day4” value is on record as 49.50 * %; the “percentage of apoptotic cells (Q1, Q2 quadrants), day 2” value (shortened to “percentage of apoptotic cells … day 2”) was found to be 10.1%. Besides, the “percentage of apoptotic cells (Q1, Q2 quadrants), day 3” value (shortened to “percentage of apoptotic cells … day 3”) was 36.6% and the “percentage of apoptotic cells (Q1, Q2 quadrants), day 4” value (shortened to “percentage of apoptotic cells … day 4”) came to 53.5%.

Take `O=C1c2c(O)ccc(O)c2C(=O)c2c(NCCNCCO)ccc(NCCNCCO)c21` [mitoxantrone]: the “Apoptotic Cells (%) Mean, Day2” value is reported as 14.26 * %; the “Apoptotic Cells (%) Mean, Day3” value is 33.60 * %; the “Apoptotic Cells (%) Mean, Day4” value is on record as 50.10 * %; the “percentage of apoptotic cells … day 2” value is reported as 13.1%. For the same molecule, the “percentage of apoptotic cells … day 3” value is reported as 32% and the “percentage of apoptotic cells … day 4” value stood at 54.3%.

Take `CCNC(=O)[C@@H]1CCCN1C(=O)[C@H](CCCNC(=N)N)NC(=O)[C@H](CC(C)C)NC(=O)[C@@H](CCCCNC(=O)CCCCCNC(=O)CCSSCC(=O)OCCNCCNc1ccc(NCCNCCO)c2c1C(=O)c1c(O)ccc(O)c1C2=O)NC(=O)[C@H](Cc1ccc(O)cc1)NC(=O)[C@H](CO)NC(=O)[C@H](Cc1c[nH]c2ccccc12)NC(=O)[C@H](Cc1c[nH]cn1)NC(=O)[C@@H]1CCC(=O)N1` [Con-7]: the “Apoptotic Cells (%) Mean, Day2” value is 13.81 * %; the “Apoptotic Cells (%) Mean, Day3” value was 33.53 * %; the “Apoptotic Cells (%) Mean, Day4” value is on record as 51.17 * %; the “percentage of apoptotic cells … day 2” value was 10.87%. Also, the “percentage of apoptotic cells … day 3” value is listed as 35.1% and the “percentage of apoptotic cells … day 4” value was 59.6%.
